# Source: patent EP1021178B1, “SELENOPHENE ANTI-TUMOR AGENTS” (Purdue Research Foundation, priority 1996, dated 1997)
# Read-outs that look alike come from different tables or passages of the source.
# How the values were obtained:
# CAKI-1 = experiment: NCI human tumor cell panel; assay type: cell-based; settings: CAKI-1, read-out: Log10 LC50 (converted)
# MDA-MB-231/ATCC = experiment: NCI human tumor cell panel; assay type: cell-based
# T-47D = experiment: NCI human tumor cell panel; assay type: cell-based; settings: T47D, read-out: Log10 LC50 (converted)
# UACC-257 = experiment: NCI human tumor cell panel; assay type: cell-based; settings: UACC-257, read-out: Log10 LC50 (converted)
# NCI-H226 = experiment: NCI human tumor cell panel; settings: for CC50: NCI-H226, read-out: Log10 LC50 (converted)
# NCI-H23 = experiment: NCI human tumor cell panel; settings: for CC50: NCI-H23, read-out: Log10 LC50 (converted); for IC (TGI): NCI-H23, read-out: Log10 TGI
# COLO 205 = experiment: NCI human tumor cell panel; settings: for CC50: COLO 205, read-out: Log10 LC50 (converted)
# SNB-75 = experiment: NCI human tumor cell panel; settings: for CC50: SNB-75, read-out: Log10 LC50 (converted)
# MALME-3M = experiment: NCI human tumor cell panel; settings: for CC50: read-out: Log10 LC50 (converted)
# OVCAR-8 = experiment: NCI human tumor cell panel; settings: OVCAR-8, read-out: Log10 LC50 (converted)
# SK-OV-3 = experiment: NCI human tumor cell panel; settings: for CC50: SK-OV-3, read-out: Log10 LC50 (converted)
# TK-10 = experiment: NCI human tumor cell panel; settings: for CC50: TK-10, read-out: Log10 LC50 (converted)
# UO-31 = experiment: NCI human tumor cell panel; settings: UO-31, read-out: Log10 LC50 (converted)
# MDA-MB-435 = experiment: NCI human tumor cell panel; settings: for CC50: MDA-MB-435, read-out: Log10 LC50 (converted)
# [1] = tested on: human tumor cell line panels; experiment: NCI human tumor cell panel, whole-panel summary (mean graph) and lines without a row head; settings: for Log10 TGI, Delta / Log10 TGI, Range / Log10 LC50, Delta: whole panel
# RXF-393 = experiment: NCI human tumor cell panel; assay type: cell-based; settings: RXF 393, read-out: Log10 LC50 (converted)
# SF-268 = experiment: NCI human tumor cell panel; assay type: cell-based; settings: SF-268, read-out: Log10 LC50 (converted)
# HL-60(TB) = experiment: NCI human tumor cell panel; settings: for CC50: HL-60, read-out: Log10 LC50 (converted); for IC (TGI): HL-60, read-out: Log10 TGI
# [2] = MDA-MB-231, read-out: Log10 LC50, Breast Cancer (converted), MDA-MB-231/ATCC
# [3] = Homo sapiens, read-out: Log10 TGI
# [4] = MDA-MB-231, read-out: Log10 LC50, MDA-MB-231/ATCC (converted)
# [5] = Homo sapiens, read-out: Log10 GI50, Delta, Delta, whole panel (converted)
SMILES,LC50 (CAKI-1) [µM],CC50 (MDA-MB-231/ATCC; [2]) [µM],CC50 (T-47D) [µM],CC50 (UACC-257) [µM],CC50 (NCI-H226) [µM],CC50 (NCI-H23) [µM],CC50 (COLO 205) [µM],CC50 (SNB-75) [µM],CC50 (MALME-3M) [µM],CC50 (OVCAR-8) [µM],CC50 (SK-OV-3) [µM],CC50 (TK-10) [µM],CC50 (UO-31) [µM],CC50 (MDA-MB-435) [µM],CC50 (RXF-393) [µM],LC50 (concentration killing 50% of cells) (SF-268) [µM],CC50 (HL-60(TB)) [µM],"Log10 TGI, Delta [1]","Log10 TGI, Range [1]","Log10 LC50, Delta [1]",other results
O=Cc1ccc(-c2ccc(-c3ccc(C=O)[se]3)s2)s1,29.5,> 100,> 100,> 100,> 100,> 100,91.2,> 100,> 100,> 100,> 100,61.7,> 100,> 100,–,–,–,–,–,–,"IC (TGI) (NCI-H226; NCI-H226, read-out: Log10 TGI): > 100 µM; IC (TGI) (NCI-H23): > 100 µM; IC (TGI) [1, 3]: 44.7 µM"
OCc1ccc(-c2ccc(-c3ccc(CO)[se]3)s2)s1,–,97.7,–,0.24,–,> 100,61.7,> 100,> 100,> 100,51.3,64.6,> 100,> 100,–,–,–,–,–,–,–
OCc1ccc(-c2ccc(-c3ccc[se]3)s2)[se]1,64.6,> 100,> 100,0.457,0.525,91.2,66.1,> 100,> 100,> 100,> 100,72.4,> 100,> 100,> 100,> 100,> 100,–,–,–,"IC (TGI) (COLO 205; COLO 205, read-out: Log10 TGI): 12.6 µM; IC (TGI) (MALME-3M; read-out: Log10 TGI): > 100 µM"
OCc1ccc(-c2ccc(-c3ccc[se]3)[se]2)[se]1,51.3,> 100,44.7,–,–,70.8,> 100,> 100,50.1,> 100,–,> 100,> 100,–,–,> 100,> 100,–,–,–,IC (TGI) (NCI-H23): 30.9 µM
OCc1ccc(-c2ccc(-c3ccc(CO)[se]3)[se]2)[se]1,13.2,–,–,31.6,9.12,95.5,17.8,> 100,56.2,72.4,–,15.8,38.9,49,8.71,20.9,–,–,–,–,"IC (TGI) (TK-10; TK-10, read-out: Log10 TGI): 0.661 µM; IC (TGI) [1, 3]: 10.5 µM"
OCc1ccc(-c2ccc(-c3ccc(CO)s3)[se]2)s1,> 100,> 100,> 100,–,> 100,> 100,22.9,–,> 100,> 100,> 100,> 100,> 100,> 100,> 100,> 100,> 100,–,–,–,"IC (TGI) (SK-OV-3; SK-OV-3, read-out: Log10 TGI): > 100 µM"
OCc1ccc(-c2ccc(-c3ccc(CO)[se]3)s2)[se]1,> 100,> 100,–,–,> 100,> 100,–,> 100,> 100,> 100,–,> 100,> 100,> 100,> 100,> 100,> 100,–,–,–,"IC (TGI) (MDA-MB-435; MDA-MB-435, read-out: Log10 TGI): > 100 µM"
OCc1ccc(-c2ccc(-c3cccs3)[se]2)s1,–,–,> 100,0.0525,0.224,> 100,–,> 100,> 100,> 100,> 100,> 100,> 100,> 100,> 100,> 100,> 100,3.46,4.00,–,"CC50 (MDA-MB-231/ATCC; [4]): > 100 µM; GI50 ([1]; Homo sapiens, read-out: Log10 GI50, MG_MID (converted)): 5.25 µM; CC50 ([1]; Homo sapiens, read-out: Log10 LC50, MG_MID (converted)): 61.7 µM; IC (TGI) ([1]; Homo sapiens, read-out: Log10 TGI, MG_MID): 28.8 µM"
O=Cc1ccc(-c2ccc(-c3ccc(C=O)[se]3)s2)[se]1,> 100,–,> 100,6.92,2.45,> 100,> 100,> 100,> 100,> 100,> 100,> 100,> 100,> 100,> 100,> 100,> 100,-4.17,2.18,-4.07,CC50 (MDA-MB-231/ATCC; [4]): > 100 µM; IC (TGI) (HL-60(TB)): > 100 µM
O=Cc1ccc(-c2ccc(-c3ccc(C=O)[se]3)[se]2)[se]1,> 100,–,> 100,> 100,> 100,> 100,> 100,> 100,> 100,> 100,–,> 100,> 100,> 100,> 100,> 100,> 100,-4.18,1.91,-4.02,"CC50 (MDA-MB-231/ATCC; [4]): > 100 µM; GI50 [1, 5]: 21.4 µM"
O=Cc1ccc(-c2ccc(-c3ccc[se]3)[se]2)[se]1,14.5,–,47.9,33.1,38.9,69.2,34.7,> 100,64.6,95.5,–,25.1,53.7,> 100,> 100,> 100,> 100,-4.78,1.37,-4.25,"GI50 [1, 5]: 3.72 µM"
O=Cc1ccc(-c2ccc(-c3cccs3)[se]2)s1,–,–,91.2,0.309,1.05,> 100,> 100,> 100,> 100,> 100,> 100,53.7,> 100,> 100,> 100,> 100,> 100,-4.42,3.13,-4.13,"IC (TGI) (SNB-75; SNB-75, read-out: Log10 TGI): 57.5 µM; GI50 [1, 5]: 6.76 µM"
O=Cc1ccc(-c2ccc(-c3ccc(C=O)s3)[se]2)s1,> 100,–,> 100,5.75,8.51,> 100,> 100,> 100,> 100,> 100,> 100,> 100,–,> 100,> 100,> 100,> 100,-4.21,1.61,-4.07,"CC50 (MDA-MB-231/ATCC; [4]): > 100 µM; IC (TGI) (HL-60(TB)): > 100 µM; GI50 [1, 5]: 17.8 µM"
